Consider 7 molecules from patent US20190364896A1, “SYNERGISTIC WEED CONTROL FROM APPLICATIONS OF PYRIDINE CARBOXYLIC ACID HERBICIDES AND ALS INHIBITORS” (Dow AgroSciences LLC, priority 2014, published 2019).

The subject of data set [1] is thistle (Cirsium arvense, CIRAR). Put plainly: Postemergence herbicidal activity, greenhouse trial (visual injury 0-100%). The class given is in vivo. The procedure: (§1) Seeds of the desired test plant species were planted in Sun Gro MetroMix® 306 planting mixture, which typically has a pH of 6.0 to 6.8 and an organic matter content of about 30 percent, in plastic pots with a surface area of 103.2 square centimeters (cm^2). […] The plants were grown for 7-36 days (d) in a greenhouse with an approximate 14-hour (h) photoperiod which was maintained at about 23° C. during the day and 22° C. during the night. Nutrients and water were added on a regular basis and supplemental lighting was provided with overhead metal halide 1000-Watt lamps as necessary. The plants were employed for testing when they reached the second or third true leaf stage.
(§2) Weighed amounts of technical or formulated material (emulsifiable concentrate (EC) or soluble concentrate (SL)) were dissolved in a volume of 97:3 volume per volume (v/v) acetone/dimethyl sulfoxide (DMSO) to stock solutions. […] The concentrated stock solutions were diluted with an aqueous mixture of 1.5% v/v of Agri-dex crop oil concentrate to provide the appropriate application rates. Compound requirements are based upon a 12 milliliter (mL) application volume at a rate of 187 liters per hectare (L/ha). Spray solutions of the experimental compound mixtures were prepared by adding the stock solutions to the appropriate amount of dilution solution to form a 12 mL spray solution in two-way combinations. Formulated compounds were applied to the plant material with an overhead Mandel track sprayer equipped with 8002E nozzles calibrated to deliver 187 L/ha over an application area of 0.503 square meters (m^2) at a spray height of 18 inches (43 centimeters (cm)) above average plant canopy. Control plants were sprayed in the same manner with the solvent blank. Application rates for component (a) are in g ae/ha, and application rates for component (b) are in g ai/ha.
(§3) The treated plants and control plants were placed in a greenhouse as described above and watered by sub-irrigation to prevent wash-off of the test compounds. After 20-22 d, the condition of the test plants as compared with that of the control plants was determined visually and scored on a scale of 0 to 100 percent where 0 corresponds to no injury and 100 corresponds to complete kill. Colby's equation was used to determine the herbicidal effects expected from the mixtures. […]
(§4) Weighed amounts of technical material were dissolved in a volume of 97:3 volume per volume (v/v) acetone/dimethyl sulfoxide (DMSO) to stock solutions. […] The concentrated stock solutions were diluted with an aqueous mixture of 1.5% v/v of Agri-dex crop oil concentrate to provide the appropriate application rates. Compound requirements are based upon a 12 milliliter (mL) application volume at a rate of 187 liters per hectare (L/ha).

Data set [2] relates to common rice (Oryza sativa, ORYSA). Put plainly: Postemergence crop injury (phytotoxicity), greenhouse trial (visual injury 0-100%). Here is the method:
as §1, §2
(§5) The treated plants and control plants were placed in a greenhouse as described above and watered by sub-irrigation to prevent wash-off of the test compounds. After 20-22 d, the condition of the test plants as compared with that of the control plants was determined visually and scored on a scale of 0 to 100 percent where 0 corresponds to no injury and 100 corresponds to complete kill. The condition of the test plants was compared with that of the control plants as determined visually and scored on a scale of 0 to 100 percent, where 0 corresponds to no injury and 100 corresponds to complete kill. Colby's equation was used to determine the herbicidal effects expected from the mixtures.
(§6) Compound 1 was formulated as an EC and was combined with florasulam, cloransulam, diclosulam, flumetsulam, penoxsulam, or pyroxsulam. Compound 2 was formulated as an EC and was combined with florasulam or pyroxsulam. The mixtures were applied to winter wheat (TRZAW), common rice (ORYSA), maize (ZEAMX), and the phytotoxicity of the herbicidal compositions was measured. In addition, the efficacy of the herbicidal compositions on blackgrass (Alopecurus myosuroides, ALOMY), pigweed (Amaranthus retrollexus, AMARE), wild oat (Avena fatua, AVEFA), common lambsquarters (Chenopodium album L., CHEAL), thistle (Cirsium arvense CIRAR), nutsedge (Cyperus esculentus, CYPES), barnyardgrass (Echinochloa crus-galli, ECHCG), poinsettia (Euphorbia heterophylla, EPHHL), ivyleaf morning-glory (Ipomoea hederacea, IPOHE), kochia (Kochia scoparia, KCHSC), wild buckwheat (Polygonum convolvulus, POLCO), grain sorghum (Sorghum vulgare, SORVU), chickweed (Stellaria media, STEME), wild pansy (Viola tricolor, VIOTR), was evaluated.
(§7) Weighed amounts of technical material were dissolved in a volume of 97:3 volume per volume (v/v) acetone/dimethyl sulfoxide (DMSO) to stock solutions. […] The concentrated stock solutions were diluted with an aqueous mixture of 1.5% v/v of Agri-dex crop oil concentrate to provide the appropriate application rates. Compound requirements are based upon a 12 milliliter (mL) application volume at a rate of 187 liters per hectare (L/ha). […]

Data set [3] has as its system wild pansy (Viola tricolor, VIOTR). Put plainly: Postemergence herbicidal activity, greenhouse trial (visual injury 0-100%). The class given is in vivo. The procedure: as §1, §2, §5
as §6, with “Compound 1 was formulated as an EC and was combined with florasulam, cloransulam, diclosulam, flumetsulam, penoxsulam, or pyroxsulam.” left out
as §4

The test system of data set [4] is nutsedge (Cyperus esculentus, CYPES). The data set is described as above. The class given is in vivo. The procedure:
as §1
as §2, with “technical” for “technical or formulated”, “material” for “material (emulsifiable concentrate (EC) or soluble concentrate (SL))”
as §3, §2

Data set [5] has as its system poinsettia (Euphorbia heterophylla, EPHHL). Described as above. Type of data set: in vivo. To be noted: Euphorbia heterophylla, post-emergence, read-out: % visual injury Obs. Here is the method:
as §1
as §2, with “technical” for “technical or formulated”, “material” for “material (emulsifiable concentrate (EC) or soluble concentrate (SL))”
as §3, §2

For data set [6], the system named is pigweed (Amaranthus retroflexus, AMARE). The data set is described as above. The class given is in vivo. To be noted: Amaranthus retroflexus, post-emergence, read-out: % visual injury Obs. Here is the method: as §1, §2, §3, §4
The test system of data set [7] is blackgrass (Alopecurus myosuroides, ALOMY). The data set is described as above. Type of data set: in vivo. The procedure:
as §1, §2, §5, §6, §7

For data set [8], the system named is common lambsquarters (Chenopodium album L., CHEAL). Described as above. The class given is in vivo. As to conditions: Chenopodium album, post-emergence, read-out: % visual injury Obs. The procedure: as §1, §2, §5, §6, §7
Data set [9] relates to ivyleaf morning-glory (Ipomoea hederacea, IPOHE). Described as above. Type of data set: in vivo. Here is the method: as §1, §2, §5, §6, §7
Data set [10] deals with wild oat (Avena fatua, AVEFA). The description is as above. The class given is in vivo. The procedure: as §1, §2, §5, §6, §7
Data set [11] deals with barnyardgrass (Echinochloa crus-galli, ECHCG). The description is as above. The class given is in vivo. The procedure:
as §1, §2, §5, §6, §7

Data set [12] has as its system giant foxtail (Setaria faberi, SETFA). The description is as above. Type of data set: in vivo.
In data set [13] the test system is large crabgrass (Digitaria sanguinalis, DIGSA). Described as above. The class given is in vivo.
Data set [14] deals with winter wheat (Triticum aestivum, TRZAW). Put plainly: Postemergence crop injury (phytotoxicity), greenhouse trial (visual injury 0-100%). As to conditions: TRZAW. Here is the method: as §1
as §2, with “technical” for “technical or formulated”, “material” for “material (emulsifiable concentrate (EC) or soluble concentrate (SL))”
as §5
Compound 2 was combined with florasulam and applied to winter wheat (TRZAW) and the phytotoxicity of the herbicidal composition was measured. In addition, the efficacy of the herbicidal composition on poinsettia (Euphorbia heterophylla, EPHHL) and […] (Cyperus esculentus, CYPES) was evaluated.
as §4, with “technical or formulated” for “technical”, “material (emulsifiable concentrate (EC) or soluble concentrate (SL))” for “material”, “(L/ha). Spray solutions of the experimental compound mixtures were prepared by adding the stock solutions to the appropriate amount of dilution solution to form a 12 mL spray solution in two-way combinations. […]” for “(L/ha).”

Data set [15] has as its system kochia (Kochia scoparia, KCHSC). Put plainly: Postemergence herbicidal activity, greenhouse trial (visual injury 0-100%). Type of data set: in vivo. The procedure:
as §1, §2, §3, §4

Data set [16] has as its system chickweed (Stellaria media, STEME). The data set is described as above. As to conditions: 15 g ai/ha. The class given is in vivo. The procedure:
as §1, §2, §5, §6, §7

The test system of data set [17] is velvetleaf (Abutilon theophrasti, ABUTH). Described as above. To be noted: 15 g ai/ha. Type of data set: in vivo.

Regarding `COc1cc(OC)nc(Oc2cccc(Oc3nc(OC)cc(OC)n3)c2C(=O)[O-])n1.[Na+]` [Bispyribac-sodium], the results for the “% visual injury Obs” value in [1] (10 g ai/ha), in data set [2] (10 g ai/ha) and in [3] (10 g ai/ha) were 95%, 10% and 80%, respectively.
`Nc1c(F)c(-c2ccc3cc[nH]c3c2F)nc(C(=O)OCc2ccccc2)c1Cl` [Compound 2]: the pest or weed control at 5 g/ha turned out to be 5% in data set [4] (Cyperus, post-emergence, 5 g ae/ha, read-out: % visual injury Obs); 35% in data set [5] (5 g ae/ha); 88% in [6] (5 g ae/ha); 88% in data set [8] (5 g ae/ha); 10% in data set [9] (Ipomoea hederacea, post-emergence, 5 g ae/ha, read-out: % visual injury Obs). Also, the pest or weed control at 10 g/ha in data set [4] (Cyperus, post-emergence, 10 g ae/ha, read-out: % visual injury Obs) stood at 10%; in [5] (10 g ae/ha) it was 75%; in data set [6] (10 g ae/ha) it was 100%; in [8] (10 g ae/ha) it was 99%; in data set [9] (Ipomoea hederacea, post-emergence, 10 g ae/ha, read-out: % visual injury Obs), 20%. The “% visual injury Obs” value in data set [7] (5 g ae/ha), in data set [7] (10 g ae/ha), in [10] (5 g ae/ha) and in data set [10] (10 g ae/ha) was 0% each time.
As for `Cc1cnc(C2=NC(C)(C(C)C)C(=O)N2)c(C(=O)O)c1` (centres unmarked) [Imazapic, imazapic], the pest or weed control at 35 g/ha in [11] (Echinochloa crus-galli, post-emergence, 35 g ai/ha, read-out: % visual injury Obs) was 93%; in data set [9] (Ipomoea hederacea, post-emergence, 35 g ai/ha, read-out: % visual injury Obs), 75%; in [3] (Viola tricolor, post-emergence, 35 g ai/ha, read-out: % visual injury Obs), 10%. For the same molecule, the “% visual injury Obs” value in data set [10] (35 g ai/ha) is on record as 95%; in data set [12] (35 g ai/ha), 90%.
With `CC(C)C1(C)N=C(c2ncccc2C(=O)O)NC1=O` (centres unmarked) [Imazapyr, imazapyr], the entries for the “% visual injury Obs” value in [7] (280 g ai/ha) and in [13] (280 g ai/ha) were 97% and 95%, respectively. For the same molecule, the pest or weed control at 280 g/ha in [9] (Ipomoea hederacea, post-emergence, 280 g ai/ha, read-out: % visual injury Obs) came out at 85%; in data set [3] (Viola tricolor, post-emergence, 280 g ai/ha, read-out: % visual injury Obs), 80%.
Consider `COc1cc(OC)nc(NC(=O)NS(=O)(=O)Nc2ccccc2C(=O)N(C)C)n1` [Orthosulfamuron, orthosulfamuron], for which the “% visual injury Obs” value in data set [14] (orthosulfamuron 15 g ai/ha) came out at 0%; in [2] (ORYSA, orthosulfamuron 15 g ai/ha), 0%. Further, the pest or weed control at 15 g/ha was 0% in data set [15] (Bassia scoparia, post-emergence, KCHSC, orthosulfamuron 15 g ai/ha, read-out: % visual injury Obs); 10% in data set [6] (AMARE, orthosulfamuron 15 g ai/ha); 90% in [9] (Ipomoea hederacea, post-emergence, IPOHE, orthosulfamuron 15 g ai/ha, read-out: % visual injury Obs).
Consider metsulfuron, for which the “% visual injury Obs” value turned out to be 50% in data set [4] (CYPES, metsulfuron 1.5 g ai/ha); 0% in data set [14] (metsulfuron 1.5 g ai/ha); 70% in [15] (KCHSC, metsulfuron 1.5 g ai/ha); 90% in [1] (CIRAR, metsulfuron 1.5 g ai/ha); 0% in data set [11] (ECHCG, metsulfuron 1.5 g ai/ha); 20% in data set [2] (ORYSA, metsulfuron 1.5 g ai/ha).
For pyribenzoxim, the “% visual injury Obs” value in data set [15] (15 g ai/ha) amounted to 0%; in data set [16], 40%; in data set [9] (15 g ai/ha), 70%; in data set [2] (15 g ai/ha), 0%; in data set [13] (15 g ai/ha), 0%; in data set [12] (15 g ai/ha), 70%. Besides, in [17], the “% visual injury Obs” value was 10%.
